Test results from US7531554B2, “4-oxoquinoline compound and use thereof as HIV integrase inhibitor” (Japan Tobacco Inc., priority 2004, dated 2009).
Counter-ions that a name gives are not always drawn.

Target: T1, HIV integrase (Human immunodeficiency virus type 1 group M subtype B, UniProt P12497, F1332H)
T1 construct: HIV integrase full length gene (J. Virol., 67, 425-437 (1993)) in which phenylalanine at codon 185 was substituted by histidine; made in house; host or cells: Escherichia coli BL21(DE3)
Test: Determination of enzyme (HIV integrase) inhibitory activity
Format: biochemical
Conditions: recombinant integrase protein (F185H), donor DNA/target DNA, absorbance at 450 nm
Outline: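 Full-length HIV integrase bearing F185H mutation, E. coli-expressed and purified, preincubated with compound on plate-bound biotinylated donor DNA for 60 min at 37 °C; digoxigenin-labelled target DNA then added for 10 min. Strand transfer detected by peroxidase anti-digoxigenin ELISA at 450 nm; IC50 from inhibition versus no-compound and no-enzyme controls.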

Row | SMILES | IC50
1 | CC(C)[C@@H](CO)n1cc(C(=O)O)c(=O)c2cc(Cc3cccc(Cl)c3F)c(O[C@@H]3CCNC3)cc21 [Example 4-37, 6-(3-chloro-2-fluorobenzyl)-1-((1S)-1-(hydroxymethyl)-2-methylpropyl)-4-oxo-7-((3R)-pyrrolidin-3-yloxy)-1,4-dihydroquinoline-3-carboxylic acid hydrochloride] | 4.4 nM
2 | COc1cc2c(cc1Cc1cccc(Cl)c1F)c(=O)c(C(=O)O)cn2[C@H](CO)C(C)(C)S(C)(=O)=O [Example 2-6, 6-(3-chloro-2-fluorobenzyl)-1-((1R)-1-(hydroxymethyl)-2-mesyl-2-methylpropyl)-7-methoxy-4-oxo-1,4-dihydroquinoline-3-carboxylic acid] | 3.8 nM
3 | CSC[C@@H](CO)n1cc(C(=O)O)c(=O)c2cc(Cc3cccc(Cl)c3F)ccc21 [Example 2-7, 6-(3-chloro-2-fluorobenzyl)-1-((1R)-1-(hydroxymethyl)-2-(methylthio)ethyl)-4-oxo-1,4-dihydroquinoline-3-carboxylic acid] | 8.1 nM
4 | CC(C)[C@@H](CO)n1cc(C(=O)O)c(=O)c2cc(Cc3cccc(Cl)c3F)c(O[C@@H]3CCOC3)cc21 [Example 4-48, 6-(3-chloro-2-fluorobenzyl)-1-((1S)-1-(hydroxymethyl)-2-methylpropyl)-4-oxo-7-((3R)-tetrahydrofuran-3-yloxy)-1,4-dihydroquinoline-3-carboxylic acid] | 5.6 nM
5 | CC(C)[C@@H](CO)n1cc(C(=O)O)c(=O)c2cc(Cc3cccc(Cl)c3F)cc(O)c21 [Example 3-5, 6-(3-chloro-2-fluorobenzyl)-8-hydroxy-1-((1S)-1-(hydroxymethyl)-2-methylpropyl)-4-oxo-1,4-dihydroquinoline-3-carboxylic acid] | 4 nM
6 | COc1cc2c(cc1Cc1cccc(Cl)c1F)c(=O)c(C(=O)O)cn2[C@H](CO)CCS(C)(=O)=O [Example 2-13, 6-(3-chloro-2-fluorobenzyl)-1-((1S)-1-(hydroxymethyl)-3-mesylpropyl)-7-methoxy-4-oxo-1,4-dihydroquinoline-3-carboxylic acid] | 6.9 nM
7 | CC(C)[C@@H](CO)n1cc(C(=O)O)c(=O)c2cc(Cc3cccc(Cl)c3F)c(OCCN3CCOCC3)cc21 [Example 4-16, 6-(3-chloro-2-fluorobenzyl)-1-((1S)-1-(hydroxymethyl)-2-methylpropyl)-7-(2-(morpholin-4-yl)ethoxy)-4-oxo-1,4-dihydroquinoline-3-carboxylic acid] | 7.9 nM
8 | COc1cc2c(cc1Cc1cccc(Cl)c1Cl)c(=O)c(C(=O)O)cn2[C@H](CO)C(C)C [Example 7-2, 6-(2,3-dichlorobenzyl)-1-((1S)-1-(hydroxymethyl)-2-methylpropyl)-7-methoxy-4-oxo-1,4-dihydroquinoline-3-carboxylic acid] | 4.5 nM
9 | COCCOc1cc(Cc2cccc(Cl)c2F)cc2c(=O)c(C(=O)O)cn([C@H](CO)C(C)C)c12 [Example 3-4, 6-(3-chloro-2-fluorobenzyl)-1-((1S)-1-(hydroxymethyl)-2-methylpropyl)-8-(2-methoxyethoxy)-4-oxo-1,4-dihydroquinoline-3-carboxylic acid] | 4.5 nM
10 | CC(C)[C@@H](CO)n1cc(C(=O)O)c(=O)c2cc(Cc3cccc(Cl)c3F)c(OC3CCN(S(C)(=O)=O)CC3)cc21 [Example 4-64, 6-(3-chloro-2-fluorobenzyl)-1-((1S)-1-(hydroxymethyl)-2-methylpropyl)-7-(1-mesylpiperidin-4-yloxy)-4-oxo-1,4-dihydroquinoline-3-carboxylic acid] | 6.6 nM
11 | CC(C)[C@@H](CO)n1cc(C(=O)O)c(=O)c2cc(Cc3cccc(Cl)c3F)c(OCc3ccc(C(N)=O)cc3)cc21 [Example 4-58, 7-(4-(aminocarbonyl)benzyloxy)-6-(3-chloro-2-fluorobenzyl)-1-((1S)-1-(hydroxymethyl)-2-methylpropyl)-4-oxo-1,4-dihydroquinoline-3-carboxylic acid] | 4.7 nM
12 | COc1cc2c(cc1Cc1cc(O)cc(Cl)c1F)c(=O)c(C(=O)O)cn2[C@H](CO)C(C)C [Example 1-6, 6-(3-chloro-2-fluoro-5-hydroxybenzyl)-1-((1S)-1-(hydroxymethyl)-2-methylpropyl)-7-methoxy-4-oxo-1,4-dihydroquinoline-3-carboxylic acid] | 4.6 nM
13 | CC(C)([C@@H](CO)n1cc(C(=O)O)c(=O)c2cc(Cc3cccc(Cl)c3F)ccc21)S(C)(=O)=O [Example 2-10, 6-(3-chloro-2-fluorobenzyl)-1-((1R)-1-(hydroxymethyl)-2-mesyl-2-methylpropyl)-4-oxo-1,4-dihydroquinoline-3-carboxylic acid] | 4.2 nM
14 | CC(C)[C@@H](CO)n1cc(C(=O)O)c(=O)c2cc(Cc3cccc(Cl)c3F)c(OCCN(C)C)cc21 [Example 4-2, 6-(3-chloro-2-fluorobenzyl)-7-(2-(dimethylamino)ethoxy)-1-((1S)-1-(hydroxymethyl)-2-methylpropyl)-4-oxo-1,4-dihydroquinoline-3-carboxylic acid] | 6 nM
15 | CC(C)[C@@H](CO)n1cc(C(=O)O)c(=O)c2cc(Cc3cccc(Cl)c3F)c(OCC(=O)O)cc21 [Example 4-50, 7-(carboxymethoxy)-6-(3-chloro-2-fluorobenzyl)-1-((1S)-1-(hydroxymethyl)-2-methylpropyl)-4-oxo-1,4-dihydroquinoline-3-carboxylic acid] | 5.3 nM
16 | CC(C)[C@@H](CO)n1cc(C(=O)O)c(=O)c2cc(Cc3cccc(Cl)c3F)c(OCc3ccccn3)cc21 [Example 4-59, 6-(3-chloro-2-fluorobenzyl)-1-((1S)-1-(hydroxymethyl)-2-methylpropyl)-4-oxo-7-(pyridin-2-ylmethoxy)-1,4-dihydroquinoline-3-carboxylic acid] | 3.6 nM
17 | CC(=O)N[C@@H]1CCN(c2cc3c(cc2Cc2cccc(Cl)c2F)c(=O)c(C(=O)O)cn3[C@H](CO)C(C)C)C1 [Example 4-27, 7-((3R)-3-(acetylamino)pyrrolidin-1-yl)-6-(3-chloro-2-fluorobenzyl)-1-((1S)-1-(hydroxymethyl)-2-methylpropyl)-4-oxo-1,4-dihydroquinoline-3-carboxylic acid] | 16 nM
18 | CC(C)(C)[C@@H](CO)n1cc(C(=O)O)c(=O)c2cc(Cc3cccc(Cl)c3F)c(N3CCOCC3)cc21 [Example 7-6, 6-(3-chloro-2-fluorobenzyl)-1-((1S)-2,2-dimethyl-1-(hydroxymethyl)propyl)-7-(morpholin-4-yl)-4-oxo-1,4-dihydroquinoline-3-carboxylic acid] | 4.3 nM
19 | CC(C)[C@@H](CO)n1cc(C(=O)O)c(=O)c2cc(Cc3cccc(Cl)c3F)c(OCCCCO)cc21 [Example 4-5, 6-(3-chloro-2-fluorobenzyl)-7-(4-hydroxybutoxy)-1-((1S)-1-(hydroxymethyl)-2-methylpropyl)-4-oxo-1,4-dihydroquinoline-3-carboxylic acid] | 3.4 nM
20 | COC[C@@H](CO)n1cc(C(=O)O)c(=O)c2cc(Cc3cccc(Cl)c3F)c(OC)cc21 [Example 2-18, 6-(3-chloro-2-fluorobenzyl)-1-((1R)-1-(hydroxymethyl)-2-methoxyethyl)-7-methoxy-4-oxo-1,4-dihydroquinoline-3-carboxylic acid] | 6 nM
21 | CC(C)[C@@H](CO)n1cc(C(=O)O)c(=O)c2cc(Cc3cccc(Cl)c3F)c(Oc3cccnc3)cc21 [Example 4-20, 6-(3-chloro-2-fluorobenzyl)-1-((1S)-1-(hydroxymethyl)-2-methylpropyl)-4-oxo-7-(pyridin-3-yloxy)-1,4-dihydroquinoline-3-carboxylic acid hydrochloride] | 9.3 nM
22 | CS(=O)(=O)C[C@@H](CO)n1cc(C(=O)O)c(=O)c2cc(Cc3cccc(Cl)c3F)ccc21 [Example 2-8, 6-(3-chloro-2-fluorobenzyl)-1-((1R)-1-(hydroxymethyl)-2-mesylethyl)-4-oxo-1,4-dihydroquinoline-3-carboxylic acid] | 20 nM
23 | COc1cc2c(cc1Cc1ccc(F)c(Cl)c1F)c(=O)c(C(=O)O)cn2[C@H](CO)C(C)C [Example 1-5, 6-(3-chloro-2,4-difluorobenzyl)-1-((1S)-1-(hydroxymethyl)-2-methylpropyl)-7-methoxy-4-oxo-1,4-dihydroquinoline-3-carboxylic acid] | 3.3 nM
24 | CC(C)[C@@H](CO)n1cc(C(=O)O)c(=O)c2cc(Cc3cccc(Cl)c3F)c(N3CCC(O)CC3)cc21 [Example 4-21, 6-(3-chloro-2-fluorobenzyl)-1-((1S)-1-(hydroxymethyl)-2-methylpropyl)-7-(4-hydroxypiperidin-1-yl)-4-oxo-1,4-dihydroquinoline-3-carboxylic acid] | 6.6 nM
25 | CC(=O)N1CCC(Oc2cc3c(cc2Cc2cccc(Cl)c2F)c(=O)c(C(=O)O)cn3[C@H](CO)C(C)C)CC1 [Example 4-45, 7-((1-acetylpiperidin-4-yl)oxy)-6-(3-chloro-2-fluorobenzyl)-1-((1S)-1-(hydroxymethyl)-2-methylpropyl)-4-oxo-1,4-dihydroquinoline-3-carboxylic acid] | 13 nM
26 | CC(C)[C@@H](CO)n1cc(C(=O)O)c(=O)c2cc(Cc3cccc(Cl)c3F)c(N3CCNC(=O)C3)cc21 [Example 4-35, 6-(3-chloro-2-fluorobenzyl)-1-((1S)-1-(hydroxymethyl)-2-methylpropyl)-4-oxo-7-(3-oxopiperazin-1-yl)-1,4-dihydroquinoline-3-carboxylic acid] | 6 nM
27 | CC(C)[C@@H](CO)n1cc(C(=O)O)c(=O)c2cc(Cc3cccc(Cl)c3F)c(O[C@H]3CCNC3)cc21 [Example 4-46, 6-(3-chloro-2-fluorobenzyl)-1-((1S)-1-(hydroxymethyl)-2-methylpropyl)-4-oxo-7-((3S)-pyrrolidin-3-yloxy)-1,4-dihydroquinoline-3-carboxylic acid hydrochloride] | 6.8 nM
